Read-outs that look alike come from different tables or passages of the source.
Legend:
[1] = test system: atherosclerotic plaques; experiment: Correlation of CT/Faxitron images with histopathology (Histopathology Correlation Scale); type: in vivo, New Zealand white rabbits; parameters: key to HCS score, renal images: 0=no correlation; 5=direct correlation
Description: The primary focus of this study was to study the potential uptake by atherosclerotic plaques of the compound PH-50. The spatial resolution of the CT scanner used in these experiments was approximately 0.15 mm and determination of plaque formation and PH-50 uptake were correlated with histopathology. The timetable for the schedule of CT studies for rabbit numbers 3081 and 3086 are outlined in Table 8.
All sets of data were carefully harvested, analyzed and then correlated with histopathology. Images were collected, labeled as either “carotid”, “Lung”, “Spleen”, “Liver”, “Cardiac”, “Renal” or “Faxitron images of the carotids,” and then graded according to a Histopathology Correlation Scale (HCS), where 0=no correlation and 5=direct correlation.

[2] = Particle size of the nanoparticle; type: physicochemical; details: iodinated nanoparticle, 15% (w/v)
[3] = for Percent Uptake (%) Aorta / Percent Uptake (%) Brain / Percent Uptake (%) Cardiac / Percent Uptake (%) Liver / Percent Uptake (%) Portal Vein / Percent Uptake (%) Posterior Vena Cava / Percent Uptake (%) Spleen: pre-treatment = 100.0
[4] = Rabbit No. 3081, 18 mL/90 min IV infusion (900 mg/kg), 255 min
[5] = Rabbit No. 3081, 18 mL/90 min IV infusion (900 mg/kg), 495 min
[6] = Rabbit No. 3086, 18 mL/90 min IV infusion (900 mg/kg), 250 min
[7] = Rabbit No. 3086, 18 mL/90 min IV infusion (900 mg/kg), 480 min

CCOC(=O)CCCCCOC(=O)c1c(I)c(NC(C)=O)c(I)c(NC(C)=O)c1I [PH-50, 6-ethoxy-6-oxohexy-3,5-bis(acetylamino)-2,4,6-triiodobenzoate]
uptake by atherosclerotic plaques ([1]; CT with histopathology, cholesterol-fed rabbits): taken up by atherosclerotic plaques in the heart and lung | HCS score, carotid images ([1]; left carotid of rabbit no. 3086): 2 | HCS score, Faxitron images ([1]; mid region of the left carotid artery of rabbit no. 3086): 3 | HCS score, cardiac images ([1]; plaques in the coronary arteries and myocardium of rabbit no. 3086, 4 and 8 hours post-injection): 4 | HCS score, renal images ([1]; renal artery of rabbit no. 3086, area not submitted for histopathology): 0 | HCS score, liver images ([1]; small arterioles of the liver of rabbit no. 3086, 4 hours post-injection): 3 | HCS score, lung images ([1]; small arterioles of the lung, 4 hours post-injection): 4 | HCS score, spleen images ([1]; small arterioles of the spleen of rabbit no. 3086, 4 hours post-injection): 4 | mean diameter [2]: 282 nm | Hounsfield Units (HU) Aorta [3, 4]: 56.5 HU | Hounsfield Units (HU) Brain [3, 4]: 49.1 HU | Hounsfield Units (HU) Cardiac [3, 4]: 136.2 HU | Hounsfield Units (HU) Liver [3, 4]: 169.3 HU | Hounsfield Units (HU) Portal Vein [3, 4]: 56.4 HU | Hounsfield Units (HU) Posterior Vena Cava [3, 4]: 95.3 HU | Hounsfield Units (HU) Spleen [3, 4]: 449.8 HU | Hounsfield Units (HU) Aorta [3, 5]: 89.3 HU | Hounsfield Units (HU) Brain [3, 5]: 36.8 HU | Hounsfield Units (HU) Cardiac [3, 5]: 138.8 HU | Hounsfield Units (HU) Liver [3, 5]: 110.6 HU | Hounsfield Units (HU) Portal Vein [3, 5]: 55.4 HU | Hounsfield Units (HU) Posterior Vena Cava [3, 5]: 87.8 HU | Hounsfield Units (HU) Spleen [3, 5]: 351.2 HU | Percent Uptake (%) Aorta ([3]; Rabbit No. 3081, 255 min): 84.0% | Percent Uptake (%) Brain ([3]; Rabbit No. 3081, 255 min): 164.2% | Percent Uptake (%) Cardiac ([3]; Rabbit No. 3081, 255 min): 383.3% | Percent Uptake (%) Liver ([3]; Rabbit No. 3081, 255 min): 383.9% | Percent Uptake (%) Portal Vein ([3]; Rabbit No. 3081, 255 min): 128.5% | Percent Uptake (%) Posterior Vena Cava ([3]; Rabbit No. 3081, 255 min): 141.0% | Percent Uptake (%) Spleen ([3]; Rabbit No. 3081, 255 min): 510.6% | Percent Uptake (%) Aorta ([3]; Rabbit No. 3081, 495 min): 132.7% | Percent Uptake (%) Brain ([3]; Rabbit No. 3081, 495 min): 123.1% | Percent Uptake (%) Cardiac ([3]; Rabbit No. 3081, 495 min): 250.8% | Percent Uptake (%) Liver ([3]; Rabbit No. 3081, 495 min): 250.8% | Percent Uptake (%) Portal Vein ([3]; Rabbit No. 3081, 495 min): 126.2% | Percent Uptake (%) Posterior Vena Cava ([3]; Rabbit No. 3081, 495 min): 129.9% | Percent Uptake (%) Spleen ([3]; Rabbit No. 3081, 495 min): 398.6% | Hounsfield Units (HU) Aorta [3, 6]: 64.0 HU | Hounsfield Units (HU) Brain [3, 6]: 31.3 HU | Hounsfield Units (HU) Cardiac [3, 6]: 220.2 HU | Hounsfield Units (HU) Liver [3, 6]: 189.4 HU | Hounsfield Units (HU) Portal Vein [3, 6]: 54.5 HU | Hounsfield Units (HU) Posterior Vena Cava [3, 6]: 96.5 HU | Hounsfield Units (HU) Spleen [3, 6]: 786.6 HU | Hounsfield Units (HU) Aorta [3, 7]: 24.1 HU | Hounsfield Units (HU) Brain [3, 7]: 34.7 HU | Hounsfield Units (HU) Cardiac [3, 7]: 200.3 HU | Hounsfield Units (HU) Liver [3, 7]: 98.2 HU | Hounsfield Units (HU) Portal Vein [3, 7]: 28.1 HU | Hounsfield Units (HU) Posterior Vena Cava [3, 7]: 58.6 HU | Hounsfield Units (HU) Spleen [3, 7]: 228.5 HU | Percent Uptake (%) Aorta ([3]; Rabbit No. 3086, 250 min): 186.6% | Percent Uptake (%) Brain ([3]; Rabbit No. 3086, 250 min): 81.3% | Percent Uptake (%) Cardiac ([3]; Rabbit No. 3086, 250 min): 320.1% | Percent Uptake (%) Liver ([3]; Rabbit No. 3086, 250 min): 384.2% | Percent Uptake (%) Portal Vein ([3]; Rabbit No. 3086, 250 min): 122.7% | Percent Uptake (%) Posterior Vena Cava ([3]; Rabbit No. 3086, 250 min): 204.9% | Percent Uptake (%) Spleen ([3]; Rabbit No. 3086, 250 min): 792.9% | Percent Uptake (%) Aorta ([3]; Rabbit No. 3086, 480 min): 70.3% | Percent Uptake (%) Brain ([3]; Rabbit No. 3086, 480 min): 90.1% | Percent Uptake (%) Cardiac ([3]; Rabbit No. 3086, 480 min): 291.1% | Percent Uptake (%) Liver ([3]; Rabbit No. 3086, 480 min): 199.2% | Percent Uptake (%) Portal Vein ([3]; Rabbit No. 3086, 480 min): 63.3% | Percent Uptake (%) Posterior Vena Cava ([3]; Rabbit No. 3086, 480 min): 124.4% | Percent Uptake (%) Spleen ([3]; Rabbit No. 3086, 480 min): 230.3% | adverse reactions during the infusion ([3]; anesthetized rabbits, 6 mL/kg IV over 90 min): No adverse reactions | blood pressure or heart rate ([3]; anesthetized rabbits, during infusion of 6 mL/kg IV over 90 min): no increase

Reference: patent US20100055032A1, “METHODS FOR […] IMAGING USING NANOP[…] AGENTS” (NanoScan Imaging LLC, priority 2001, published 2010)
